Data taken from patent publication US20240424053A1, “METHODS AND COMPOSITIONS FOR PROVIDING MYOCARDIAL PROTECTION AND TREATING MYOCARDIAL STRESS AND FIBROSIS” (Tufts Medical Center, Inc., priority 2021, published 2024).
Entries after “also recorded” stand apart in the source; their conditions may differ. Where a SMILES comes first, the peptide text is derived from it. The star is where a group is joined. Palmitoyl = CCCCCCCCCCCCCCCC(=O)*

Legend:
PAR1 [1] = target: T1, PAR1 (Mus musculus, UniProt P30558); assay: thoracic aortic constriction (TAC) LV pressure overload model of HFrEF in mice; type: in vivo
T1 construct: endogenous in cells; host or cells: male C57BL/6N mice, in vivo
T1 sequence (P30558 22-430): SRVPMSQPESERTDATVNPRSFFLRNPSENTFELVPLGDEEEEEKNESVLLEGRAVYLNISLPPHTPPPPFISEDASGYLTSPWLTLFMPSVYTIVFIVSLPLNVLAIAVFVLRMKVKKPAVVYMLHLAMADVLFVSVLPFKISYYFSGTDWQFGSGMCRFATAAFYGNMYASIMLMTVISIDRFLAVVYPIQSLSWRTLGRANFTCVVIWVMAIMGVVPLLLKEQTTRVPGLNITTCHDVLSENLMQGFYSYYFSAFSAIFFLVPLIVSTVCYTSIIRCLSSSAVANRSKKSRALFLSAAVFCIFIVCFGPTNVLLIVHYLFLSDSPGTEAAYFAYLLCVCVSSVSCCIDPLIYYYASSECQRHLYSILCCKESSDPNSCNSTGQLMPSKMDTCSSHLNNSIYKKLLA
Experimental: Male C57BL/6N mice were treated daily for 7 weeks with vehicle or 10 mg/kg PZ-128 sc following 25G transaortic constriction (TAC) or sham surgery (Richards et al., Scientific Reports 9(1):5844, 2019) (n=5-7). (FIG. 4A) Photomicrographs of interstitial fibrosis in cardiac sections stained with sirius red from Sham and TAC animals treated with Veh or PZ-128. (FIG. 4B) Interstitial collagen area from animals in A was quantified along with (FIG. 4C) Col1a1 expression by Q-PCR. (FIGS. 4D-4E) LV fractional shortening and ejection fraction were quantified by ECHO. (FIG. 4F) The outline of cardiomyocytes was identified by wheat germ agglutinin (WGA-green) staining with (FIG. 4G) mean myocyte area digitally quantified. (FIG. 4H) Mean weight (mg) of LV normalized to tibia length (mm).
(FIG. 5A) Photomicrographs of CD11 b+monocytes/macrophages and CD4+ T cells in Sham vs TAC in mice treated with vehicle or PZ-128 as in FIGS. 4A-4H, with CD11 b staining area quantified in FIG. 5B and T cells quantified in FIG. 5C.
TAC vs Sham mice were treated for 7 weeks with vehicle or PZ-128, and cardiac fibrosis and LV hypertrophy indices measured. […] This may indicate that unlike upstream thrombin (Dong et al., Thromb. Res. 159:58-64, 2017) or factor Xa (Yurista et al., Cardiovasc. Drugs Ther. 35(5):953-963, 2021) blockade, inhibition of PAR1 may effectively suppress cardiac hypertrophy by reducing the total ventricular mass, potentially by reducing MMP1-PAR1 driven fibrosis/remodeling and cardiac fibroblast expansion.
To obtain additional data to support PAR1 as a potentially important contributor to HF pathogenesis via inflammation, we investigated the effect of PZ-128 on monocyte/macrophage and CD4+ T cells in the 7-week TAC LV pressure overload model. As shown in FIGS. 5A-5B, there was a marked amount of CD11 b+monocytes/macrophages in the cardiac tissue from the TAC animals which was suppressed by nearly 90% by PZ-128 treatment.

PAR1 [2] = target: T2, PAR1 (Homo sapiens, UniProt P25116); conditions: subjects with coronary artery disease; cited from earlier work
T2 construct: delivered intravenously in 100 patients with coronary artery disease (CAD) and acute coronary syndrome (ACS) undergoing cardiac catheterization; endogenous in cells; host or cells: patients of the TRIP-PCI trial (platelets ex vivo; whole body in vivo)
T2 sequence (P25116 22-425): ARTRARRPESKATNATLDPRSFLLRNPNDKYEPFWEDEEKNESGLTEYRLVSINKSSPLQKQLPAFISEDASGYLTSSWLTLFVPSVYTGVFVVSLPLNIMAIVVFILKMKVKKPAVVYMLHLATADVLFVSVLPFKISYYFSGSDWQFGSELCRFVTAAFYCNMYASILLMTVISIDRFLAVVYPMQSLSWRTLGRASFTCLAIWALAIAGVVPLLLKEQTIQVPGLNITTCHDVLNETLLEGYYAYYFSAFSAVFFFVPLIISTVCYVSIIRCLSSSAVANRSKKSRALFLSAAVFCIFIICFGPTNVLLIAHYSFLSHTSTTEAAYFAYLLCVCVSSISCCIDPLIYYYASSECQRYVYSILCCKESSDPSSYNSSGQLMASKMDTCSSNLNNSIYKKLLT

PAR1 [3] = target: T1, PAR1; assay: echocardiography after 3 days reperfusion following 30 min myocardial ischemia in mice; type: in vivo; conditions: 10 mg/kg sc once daily, n=4
Experimental: A role of PAR1 in directly mediating cardiac ischemic myonecrosis—independent of established platelet-dependent effects (Strande et al., Basic Res. Cardiol. 102(4):350-358, 2007)—was also examined. […] Mice (n=7) were treated with vehicle or 10 mg/kg PZ-128 (subcutaneous; sc) just prior to ischemic injury. As shown in FIG. 1a-d, PZ-128-treated mice had 51-62% reductions in mean cardiac Infarct Area (p<0.01), Area At Risk (p<0.01), and Total Ischemic Area (p<0.0001) compared to vehicle-treated mice. […] Using echocardiography after 3 days of reperfusion, there was a significant increase in left ventricular mass (p<0.05) in vehicle compared to PZ-128 treated cohorts, with no difference in left ventricular mass between baseline and 3 days in the PZ-128 cohort (FIG. 2). […] Previous pharmacokinetic studies of subcutaneously administered PZ-128 in mice were the basis of this 10 mg/kg dose in mice (Cisowski et al., Am. J. Pathol. 179(1):513-523, 2011), selected to match the 0.3-0.5 mg/kg doses administered in humans.
A subset of male C57BL6N mice from each group subjected to 30 min left coronary artery ischemia (FIGS. 1A-1E) were reperfused for 3 days (n=4 vehicle, n=4 10 mg/kg PZ-128 sc once daily).

PAR1 [4] = conditions: cited from earlier work
[5] = 7 weeks, Q-PCR relative to GAPDH mRNA, preliminary

CCCCCCCCCCCCCCCC(=O)N[C@@H](CCCCN)C(=O)N[C@@H](CCCCN)C(=O)N[C@@H](CO)C(=O)N[C@@H](CCCNC(=N)N)C(=O)N[C@@H](C)C(=O)N[C@@H](CC(C)C)C(=O)N[C@@H](Cc1ccccc1)C(N)=O [PZ-128, Palmitate-KKSRALF-NH2] (Palmitoyl-KKSRALF-NH2)
LV mass (adjusted for tibia length) (PAR1 [1]; 10 mg/kg sc daily for 7 weeks): highly significant protective effect
TAC-induced loss in ejection fraction by ECHO (PAR1 [1]; 10 mg/kg sc daily for 7 weeks): significant protective effects
TAC-induced loss in fractional shortening by ECHO (PAR1 [1]; 10 mg/kg sc daily for 7 weeks): significant protective effects
interstitial collagen (cardiac fibrosis) relative to vehicle (PAR1 [1]; 10 mg/kg sc daily for 7 weeks): dramatic anti-fibrotic effects
suppression of the increase in mean myocyte cross-sectional area (PAR1 [1]; 10 mg/kg sc daily for 7 weeks): no effect
Col1A1 expression relative to vehicle (PAR1 [1]; 10 mg/kg sc daily for 7 weeks, Q-PCR): dramatic anti-fibrotic effects
suppression of CD11b+ monocytes/macrophages in cardiac tissue (PAR1 [1]; 7 weeks): ~90%
CTGF gene expression (PAR1 [1]; [5]): reduces expression
Cyr61 gene expression (PAR1 [1]; [5]): reduces expression
IL-6 gene expression (PAR1 [1]; [5]): reduces expression
TGFβ gene expression (PAR1 [1]; [5]): reduces expression
TNFα gene expression (PAR1 [1]; [5]): reduces expression
T cell infiltration (CD4+) (PAR1 [1]; 7 weeks, vehicle mice significant increases): non-significant increases
platelet activation and hemostasis in phase 1 (PAR1 [2]): suppresses platelet activation without effects on hemostasis
ejection fraction at 3 days compared to baseline (PAR1 [3]): no significant reductions; also recorded: maintained baseline
fractional shortening at 3 days compared to baseline (PAR1 [3]): no significant reductions; also recorded: maintained baseline
left ventricular mass, baseline vs 3 days (PAR1 [3]): no difference; also recorded: no significant differences
mode of action at PAR1 (PAR1 [4]): full PAR1 antagonists
